In patent publication US10196346B2, “Substituted acethydrazide derivative, preparation method and use thereof” (Institute of Pharmacology and Toxicology Academy of …, priority 2014, dated 2019):

Molecular target: EGFP-HIF-1α fusion protein (Homo sapiens (Human), UniProt Q16665)
Experiment: Stabilization of HIF-1α in EGFP-HIF-1α-CHOhIR cell model (nuclear EGFP fluorescence imaging)
Assay type: cell-based
Conditions: CHOhIR cells stably expressing EGFP-HIF-1α; 3 h incubation; 0.03-30 μM; bipyridine 100 μM = 100% activation; read-out: Effects in stabilization of HIF-1α activity (EC50)
Protocol: CHOhIR cells (purchased from Thermo Fisher Scientific) which stably expressed EGFP-HIF-1α fusion protein were cultured under 37° C. and 5% CO2 in F12 culture solution containing 0.5 mg/ml G418 and 10% FBS, transplanted in an amount of 0.8×10^4 cells/100 μl/well on a 96-well culture plate that could be subjected to fluorescence detection, and cultured under 37° C. and 5% CO2 for 18-24 h. […] After the cells were incubated under 37° C. and 5% CO2 for 3 h, 12% formaldehyde in amount of 100 μl/well was added, fixation was carried out at room temperature for 30 min. Culture media was discarded, and the plate was washed with PBS twice, PBS containing 1 μM Hoechst was used, staining was performed at room temperature for 1 h. Detection was performed by IN Cell Analyzer 1000 live cell imaging system. Detection conditions were: 20× objective lens, excitation wavelength Ex=460 nm, emission wavelength […] to detect blue-fluorescence of cell nucleus passage; excitation wavelength Ex=475 nm, emission wavelength Em=535 nm, exposure 500 ms to detect green-fluorescence EGFP of cytoplasm passage, and pictures were taken continuously in 5 fields of view for each well. IN Cell Analyzer 1000 Multitarget Analysis Module of GE Company was used for analyzing aggregation of green-fluorescence of HIF-1α in cell nucleus, and BP100 μM treatment group was used as 100% activation of HIF-1α.

For `COc1cccc(/C=N/NC(=O)CN(C)CCN(C)Cc2cccc3ccccc23)c1O` [Example 1, (E)-N′-(3-methoxy-2-hydroxybenzal)-2-{N-{2-[N-(naphthalen-1-yl-methylene)-N-methylamino]ethyl}N-methylamino}acethydrazide], the EC50 was 2290 ± 270 nM.

For `CN(CCN(C)Cc1cccc2ccccc12)CC(=O)N/N=C/c1cc(C(C)(C)C)cc(C(C)(C)C)c1O` [Example 2, (E)-N′-(3,5-di-tert-butyl-2-hydroxybenzal)-2-{N-{2-[N-(naphthalen-1-yl-methylene)-N-methylamino]ethyl}N-methylamino}acethydrazide], the EC50 was 17800 ± 4810 nM.

In the case of `CCOc1cccc(/C=N/NC(=O)CN(C)CCN(C)Cc2cccc3ccccc23)c1O` [Example 3, (E)-N′-(3-ethoxy-2-hydroxybenzal)-2-{N-{2-[N-(naphthalen-1-yl-methylene)-N-methylamino]ethyl}N-methylamino}acethydrazide], the EC50 is reported as 2110 ± 850 nM.

Compound `CN(CCN(C)Cc1cccc2ccccc12)CC(=O)N/N=C/c1c(O)ccc2ccccc12` [Example 4, (E)-N′-[(2-hydroxynaphthalen-1-yl)methylene]-2-{N-{2-[N-(naphthalen-1-yl-methylene)-N-methylamino]ethyl}N-methylamino}acethydrazide] has an EC50 of 830 ± 180 nM.

Work on `CCN(CC)c1ccc(/C=N/NC(=O)CN(C)CCN(C)Cc2cccc3ccccc23)c(O)c1` [Example 5, (E)-N′-(4-N,N-diethylamino-2-hydroxybenzal)-2-{N-{2-[N-(naphthalen-1-yl-methylene)-N-methylamino]ethyl}N-methylamino}acethydrazide] yielded an EC50 of 780 ± 140 nM.

`CN(CCN(C)Cc1cccc(C(F)(F)F)c1)CC(=O)N/N=C/c1cc(C(C)(C)C)cc(C(C)(C)C)c1O` [Example 8, (E)-N′-(3,5-di-tert-butyl-2-hydroxybenzal)-2-{N-{2-[N-(3-trifluoromethylbenzyl)-N-methylamino]ethyl}N-methylamino}acethydrazide] showed an EC50 of 5230 ± 1390 nM.

`CCN(CC)c1ccc(/C=N/NC(=O)CN(C)CCN(C)Cc2cccc(C(F)(F)F)c2)c(O)c1` [Example 10, (E)-N′-(4-N,N-diethylamino-2-hydroxybenzal)-2-{N-{2-[N-(3-trifluoromethylbenzyl)-N-methylamino]ethyl}N-methylamino}acethydrazide] was tested, and the EC50 was 600 ± 180 nM.

`CN(CCN(C)Cc1cccc(C(F)(F)F)c1)CC(=O)N/N=C/c1cccc(O)c1O` [Example 11, (E)-N′-(2,3-dihydroxybenzal)-2-{N-{2-[N-(3-trifluoromethylbenzyl)-N-methylamino]ethyl}N-methylamino}acethydrazide] was tested, and the EC50 was 170 ± 40 nM.

`CCOc1cccc(/C=N/NC(=O)CN(C)CCN(C)Cc2ccc(C(C)C)cc2)c1O` [Example 13, (E)-N′-[(3-ethoxy-2-hydroxybenzal)methylene]-2-{N-{2-[N-(4-isopropylbenzyl)-N-methylamino]ethyl}N-methylamino}acethydrazide] was tested, and the EC50 was 800 ± 190 nM.

In the case of `CC(C)c1ccc(CN(C)CCN(C)CC(=O)N/N=C/c2c(O)ccc3ccccc23)cc1` [Example 14, (E)-N′-[(2-hydroxynaphthalen-1-yl)methylene]-2-{N-{2-[N-(4-isopropylbenzyl)-N-methylamino]ethyl}N-methylamino}acethydrazide], the EC50 is reported as 1020 ± 340 nM.

For `CC(C)c1ccc(CN(C)CCN(C)CC(=O)N/N=C/c2cc(C(C)(C)C)cc(C(C)(C)C)c2O)cc1` [Example 15, (E)-N′-(3,5-di-tert-butyl-2-hydroxybenzal)-2-{N-{2-[N-(4-isopropylbenzyl)-N-methylamino]ethyl}N-methylamino}acethydrazide], the EC50 was 11200 ± 2870 nM.

`CC(C)c1ccc(CN(C)CCN(C)CC(=O)N/N=C/c2cccc(O)c2O)cc1` [Example 17, (E)-N′-(2,3-dihydroxybenzal)-2-{N-{2-[N-(4-isopropylbenzyl)-N-methylamino]ethyl}N-methylamino}acethydrazide] gave an EC50 of 560 ± 150 nM.

In the case of `CC(C)c1ccc(CN(C)CCN(C)CC(=O)N/N=C/c2cc(Br)ccc2O)cc1` [Example 18, (E)-N′-(3-bromo-6-hydroxybenzal)-2-{N-{2-[N-(4-isopropylbenzyl)-N-methylamino]ethyl}N-methylamino}acethydrazide], the EC50 is reported as 2280 ± 670 nM.

`COc1cccc(CN(C)CCN(C)CC(=O)N/N=C/c2cc(C(C)(C)C)cc(C(C)(C)C)c2O)c1` [Example 22, (E)-N′-(3,5-di-tert-butyl-2-hydroxybenzal)-2-{N-{2-[N-(3-methoxybenzyl)-N-methylamino]ethyl}N-methylamino}acethydrazide] was tested, and the EC50 was 2770 ± 310 nM.

Work on `CCN(CC)c1ccc(/C=N/NC(=O)CN(C)CCN(C)Cc2cccc(OC)c2)c(O)c1` [Example 23, (E)-N′-(4-N,N-diethylamino-2-hydroxybenzal)-2-{N-{2-[N-(3-methoxybenzyl)-N-methylamino]ethyl}N-methylamino}acethydrazide] yielded an EC50 of 760 ± 150 nM.

For `COc1cccc(CN(C)CCN(C)CC(=O)N/N=C/c2cccc(O)c2O)c1` [Example 24, (E)-N′-(2,3-dihydroxybenzal)-2-{N-{2-[N-(3-methoxybenzyl)-N-methylamino]ethyl}N-methylamino}acethydrazide], the EC50 was 820 ± 90 nM.

`COc1cccc(CN(C)CCN(C)CC(=O)N/N=C/c2cc(Br)ccc2O)c1` [Example 25, (E)-N′-(3-bromo-6-hydroxybenzal)-2-{N-{2-[N-(3-methoxybenzyl)-N-methylamino]ethyl}N-methylamino}acethydrazide] gave an EC50 of 7190 ± 1270 nM.

With `CN(CCN(C)Cc1ccc(C#N)cc1)CC(=O)N/N=C/c1c(O)ccc2ccccc12` [Example 26, (E)-N′-[(2-hydroxynaphthalen-1-yl)methylene]-2-{N-{2-[N-(4-cyanobenzyl)-N-methylamino]ethyl}N-methylamino}acethydrazide] the EC50 was 980 ± 100 nM.

`CN(CCN(C)Cc1ccc(C#N)cc1)CC(=O)N/N=C/c1cc(C(C)(C)C)cc(C(C)(C)C)c1O` [Example 27, (E)-N′-(3,5-di-tert-butyl-2-hydroxybenzal)-2-{N-{2-[N-(4-cyanobenzyl)-N-methylamino]ethyl}N-methylamino}acethydrazide] was tested, and the EC50 was 7750 ± 1330 nM.

`COc1cccc(/C=N/NC(=O)CN(C)CCN(C)Cc2ccc(C#N)cc2)c1O` [Example 28, (E)-N′-(3-methoxy-2-hydroxybenzal)-2-{N-{2-[N-(4-cyanobenzyl)-N-methylamino]ethyl}N-methylamino}acethydrazide] gave an EC50 of 8420 ± 3150 nM.

Work on `CCOc1cccc(/C=N/NC(=O)CN(C)CCN(C)Cc2ccc(C#N)cc2)c1O` [Example 29, (E)-N′-(3-ethoxy-2-hydroxybenzal)-2-{N-{2-[N-(4-cyanobenzyl)-N-methylamino]ethyl}N-methylamino}acethydrazide] yielded an EC50 of 2770 ± 390 nM.

In the case of `CCN(CC)c1ccc(/C=N/NC(=O)CN(C)CCN(C)Cc2ccc(C#N)cc2)c(O)c1` [Example 30, (E)-N′-(4-N,N-diethylamino-2-hydroxybenzal)-2-{N-{2-[N-(4-cyanobenzyl)-N-methylamino]ethyl}N-methylamino}acethydrazide], the EC50 is reported as 530 ± 20 nM.

`COc1cccc(/C=N/NC(=O)CN(C)CCN(C)Cc2ccc(C(C)(C)C)cc2)c1O` [Example 31, (E)-N′-(3-methoxy-2-hydroxybenzal)-2-{N-{2-[N-(4-tert-butylbenzyl)-N-methylamino]ethyl}N-methylamino}acethydrazide] was tested, and the EC50 was 2760 ± 780 nM.

Compound `CCOc1cccc(/C=N/NC(=O)CN(C)CCN(C)Cc2ccc(C(C)(C)C)cc2)c1O` [Example 32, (E)-N′-(3-ethoxy-2-hydroxybenzal)-2-{N-{2-[N-(4-tert-butylbenzyl)-N-methylamino]ethyl}N-methylamino}acethydrazide] has an EC50 of 1860 ± 570 nM.

`CCN(CC)c1ccc(/C=N/NC(=O)CN(C)CCCN(C)Cc2ccc(C(C)(C)C)cc2)c(O)c1` [Example 33, (E)-N′-(4-N,N-diethylamino-2-hydroxybenzal)-2-{N-{3-[N-(4-tert-butylbenzyl)-N-methylamino]propyl}N-methylamino}acethydrazide] was tested, and the EC50 was 130 ± 20 nM.
